The text below walks through data of article PMC5090206, “Fluselenamyl: A Novel Benzoselenazole Derivative for PET Detection of Amyloid Plaques (Aβ) in Alzheimer’s Disease” (Scientific Reports, 2016).

The assay addresses Aβ plaques (Homo sapiens, UniProt P05067). The assay is described as follows: Ex vivo autoradiography of APP/PS1 Tg and WT mouse brain sections. Conditions: for target/reference count intensity ratio (mean ± SD): 30 min post injection, cortex and amygdala vs hypothalamus; for target/reference count intensity ratio: brain stem as reference region. The assay is classed as in vivo. Here is the method: Uptake in brain and other critical organs was analyzed in terms of percent injected dose per gram of the tissue (%ID/g) SI Table 1. For in vivo imaging of Aβ plaques, the basic pharmacokinetic model in normal brains involves a high initial penetration of the agent, accompanied by facile clearance due to lack of a binding target. […] For comparison, brain uptake ratios of [^18F]-AV-45 (2 min/2 h) and [^18F]-Florbetaben (2 min/4 h) in normal mice are 4.07 (%ID/g (brain): 2 min: 7.33 ± 1.54; 2 h: 1.80 ± 0.07; 7.33/1.80; 4.07)[10] and 5.0 (%ID/g (brain): 2 min: 4.77; 4 h: 0.95; 4.77/0.95; 5.02)[46], respectively. […] For an agent to be able to serve as an Aβ-imaging agent, literature precedents indicate that brain uptake ratio (%ID/g; the earliest time–point; 2–5 min to that of the latest time point; typically for carbon-11; 30–60 min; and F-18, 2 h) of 3.5 or above could be considered as a benchmark for ability of a given agent to cross the blood-brain barrier. Additionally, the brain uptake of a given imaging agent is also a net function of several components, such as cerebral regional blood flow, BBB permeability, plasma radiotracer concentration, and free fractions of the radiotracer in plasma and in the brain. Furthermore, the lipophilicity of a given compound also reflects a critical physicochemical trait for neuroimaging radiotracers due to its direct relationship to membrane permeability, solubility in water, and entropic contribution to binding. Literature precedents indicate that lipophilic drugs readily cross the BBB, although other chemical characteristics, including the number of hydrogen bonds, molecular weight, polar surface area and molecular size are also known to be critical traits for passive transport. […] Conversely, radiotracers that are too lipophilic can also bind plasma proteins, undergo fast metabolism, while also contributing to high nonspecific binding, such as white matter. […] For ROI analysis of the PET signal in brain section autoradiograms of transgenic mouse (Fig. 7A) and its WT counterpart (Fig. 7D), we used measured count densities in cortex and amygdala target regions and compared them with that of hypothalamus as reference region with a low plaque density as determined by Aβ immunostaining (Fig. 7B). […] Since brain stem was also devoid of plaques, we also analyzed the above target regions using brain stem as a reference region, and observed target/reference value in the transgenic to be 0.89 ± 0.1 compared to 0.45 ± 0.07 in the WT mouse. […]

Sequence of Aβ plaques (P05067 672-711 limits assumed): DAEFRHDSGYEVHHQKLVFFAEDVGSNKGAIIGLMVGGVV

For `CN(C)c1ncc(/C=C\c2nc3cc(OCC[18F])ccc3[se]2)cn1` [[^18F]-9], the “target/reference count intensity ratio (mean ± SD)” value by setting is: (24 months APP/PS1 transgenic mouse) 1.88 ± 0.22; (WT control mouse) 0.96 ± 0.12. Moreover, the “target/reference count intensity ratio” value runs as follows: (APP/PS1 transgenic mouse) 0.89 ± 0.1; (WT mouse) 0.45 ± 0.07.
